According to patent US4837333A, “Substituted alkylidene imidazoles” (G. D. Searle & Co., priority 1987, dated 1989):

Legend:
[1] = target: T1, thromboxane synthetase (Homo sapiens, UniProt P24557); test: Thromboxane production in Human Platelet Rich Plasma (collagen-stimulated, TxB2 radioimmunoassay); type: cell-based; conditions: 10 min. incubation, collagen 20 μg/ml, 37° C., read-out: ACTIVITY (IC50 × 10^6 M), inhibition of collagen-induced TxB2 generation
T1 construct: The citrated blood was centrifuged at 160 g for 10 mins. at 22° C. to obtain platelet rich plasma (prp); endogenous in cells; host or cells: human platelets in citrated platelet rich plasma from healthy male donors
T1 sequence (P24557 1-533): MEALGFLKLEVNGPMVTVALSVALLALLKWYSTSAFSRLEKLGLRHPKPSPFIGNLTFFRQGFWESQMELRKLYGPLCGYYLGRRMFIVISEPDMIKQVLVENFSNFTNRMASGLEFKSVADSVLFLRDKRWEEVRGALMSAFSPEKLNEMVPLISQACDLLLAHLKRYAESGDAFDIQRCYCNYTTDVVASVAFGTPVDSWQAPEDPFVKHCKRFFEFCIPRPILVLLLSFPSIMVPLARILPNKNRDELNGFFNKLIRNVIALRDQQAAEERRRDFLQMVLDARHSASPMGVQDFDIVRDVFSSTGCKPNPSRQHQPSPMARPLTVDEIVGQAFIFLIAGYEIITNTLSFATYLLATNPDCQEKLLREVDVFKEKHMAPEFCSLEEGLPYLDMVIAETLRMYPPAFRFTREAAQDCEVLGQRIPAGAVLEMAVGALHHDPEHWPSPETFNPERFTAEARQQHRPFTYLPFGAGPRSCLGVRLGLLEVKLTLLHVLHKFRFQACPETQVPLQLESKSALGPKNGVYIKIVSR
Protocol: (i) inhibition of the generation of thromboxane A2 as determined by radioimmunoassay of its stable metabolite, thromboxane B2 (New England Nuclear, Thromboxane B2 [^3 H] RIA kit, Catalogue No. NEK 007); and
Various compounds of the present invention were evaluated utilizing an in vitro radioimmunoassay as described in the following Example in order to determine inhibition of thromboxane production.
Thromboxane production in Human Platelet Rich Plasma
(a) Platelet rich plasma (prp) preparation
Human venous blood was collected from healthy male donors, who had denied any medication during the previous 14 days. Nine volumes of blood were mixed with one volume of 3.24% trisodium citrate. The citrated blood was centrifuged at 160 g for 10 mins. at 22° C. to obtain platelet rich plasma (prp). The platelets were then counted on a Coulter counter, and the platelet count was adjusted to 200,000 per μl with plasma.
(b) Thromboxane generation
The prp was then dispensed as aliquots into micro-Eppendorf tubes, maintained at 37° C. in a dry bath. The compound to be evaluated was dissolved either in saline, ethanol, or dimethylsulphoxide, and added in duplicate to the prp aliquots to produce a final concentration in the range of 0.1-30 μg/ml. When ethanol or dimethylsulphoxide was used to dissolve the compound, triplicate controls containing the same percentage of ethanol or dimethyl sulphoxide as the test compound was made. The final concentration of organic solvent was never greater than 0.1%, which has been determined to have no effect on TxB2 generation.
Following a 10 min. incubation withtest compounds or controls, collagen was added to the tubes containing the test compounds to produce a final concentration of 20 μg/ml. The tubes were then whirly-mixed for 15 seconds and replaced in the dry bath for a further 10 minutes. Saline was added to the tubes containing the controls, in lieu of collagen. The reaction was then stopped by rapid centrifugation (15000 g for 3 mins). The plasma was removed and frozen at -29° C. until assayed.
(c) Assay of Thromboxane B2
Aliquots (100 μl) of thromboxane TxB2 (plasma extract or standards 50 to 10,000 pg/ml), [^3 H]-TxB2 (approximately 15,000 dpm) and anti-TxB2 antiserum (0.5 μg/100 μl) were combined in […] phosphate buffer+0.1% gelatin+thimerosal (pH 6.8) were incubated for 16 hours at 4° C. The free and protein bound [^3 H]-TxB2 were separated by absorption onto activated charcoal followed by centrifugation. 1.0 ml of the supernatant was added to an aqueous scintillation fluid, and the radioactivity present was counted in a liquid scintillation counter. The binding of [^3 H]-TxB2 in the absence of added TxB2 was approximately 55%. The minimum concentration of TxB2 to be detected accurately in the plasma was 50 pg.ml. Cross reactivity with other prostaglandins was less than 0.005% except with PGD2 wherein the cross reactivity was 1%.
The plasma samples were initially assayed to give approximation of TxB2 content. The plasma was then appropriately diluted and re-assayed in duplicate to give final values.
The amount of TxB2 generated by collagen was calculated by subtracting mean values obtained for the saline stimulated platelets from the mean values obtained from the collagen stimulated platelets. The amount of TxB2 generated in the presence of each concentration of test compound was expressed as a % of control and dose response curves were constructed to determine the concentration of test compound which produced 50% inhibition.

[2] = test system: Thromboxane Formation (plasma TXB2); test: Whole Blood Aggregation and Thromboxane Formation In Vivo: Guinea Pig (plasma TXB2 by RIA); conditions: oral (dose not given), ex vivo collagen-stimulated citrated whole blood, normalized to platelet count
Protocol: Whole Blood Aggregation and Thromboxane Formation In Vivo: Guinea Pig
All guinea pigs (albino male Dunkin-Bartley, 300-350 g) were fasted overnight before use in the test. The test compound was administered by oral dosing needle to conscious animals. All test compounds, if not water soluble, were administered formulated in a 50% PEG 400/50% carboxymethylcellulose mixture as solution or suspension. Oral dose volumes were 0.1 ml per 100 g body weight.
Animals were anaesthetized with pentabarbitone sodium (60 mg/kg) given intraperitoneally approximately 10 minutes before the bleed time. Once surgically anaesthetized, the peritoneal cavity was opened, and 4.5 ml blood was drawn into a syringe containing 0.5 ml 3.0% trisodium citrate (9:1 v/v) from the abdominal aorta via a 21/23 gauge butterfly needle. The blood was gently mixed with the citrate in the syringe, and transferred to a screwcap plastic tube. Animals were dosed and bled at one hour intervals.
Aggregation of the citrated guinea pig whole blood was carried out within 1-2 hours of bleeding, using standard whole blood aggregometry and counting technique. Aliquots (0.55 ml) of citrated whole blood were heated to 37° C. and stirred at 1000 RPM in an aggregometer. An initial 50 μl sample of blood was withdrawn for counting, collagen was added, and additional samples were withdrawn at 1, 2, 3 and 4 minutes. Aggregation was monitored by noting the decrease in single platelet count. Buffer (no collagen) control were included.
At the end of the four minute incubation for platelet counting, the remainder of each blood sample was allowed to stir for one additional minute. At 5 minutes, 1.0 μl of 19 mg/ml indomethacin (dissolved in dimethylsulfoxide) was added to each sample, resulting in a final indomethacin concentration of 30 ug/ml. The resulting solutions were mixed (15-30 seconds) and cooled on ice. Samples were centrifuged and 150 ul of plasma was removed. The plasma samples were frozen until radioimmunoassay for TXB2. The radioimmunoassay was conducted as previously described at plasma dilutions of 1:20. Two vehicle administered control aminals were run. Groups of at least four animals per test compound were utilized.
The raw results obtained in the RIA from a 0.1 ml sample of 1:20 diluted plasma were corrected to pg/ml in original plasma sample (×200). The R.I.A. values were then normalized for initial platelet count within the blood sample to 5.0×10^8 ml^-1 (range of platelet count in citrated guinea pig whole blood was varied between the limits […] ml^-1). The test and control results were then compared, and inhibition (%) calculated in the normal way. Statistical analysis is again by Student's t-test.

CCOC(=O)c1ccc(/C=C(\COCc2ccc(OC)cc2)Cn2ccnc2)cc1 [1 (Z-isomer), ethyl 4-[3-(1H-imidazol-1-yl)-2-[[(4-methoxyphenyl)methoxy]methyl]-1Z-propenyl]benzoate]
IC50 [1]: 0.022 µM
% INHIBITION (plasma TXB2) [2]: -45.5%

CCOC(=O)c1ccc(/C=C(\CCCc2ccc(OC)cc2)Cn2ccnc2)cc1 [12 (E-isomer), ethyl 4-[2-[(1H-imidazol-1-yl)-methyl]-5-(4-methoxyphenyl)-1E-pentenyl]benzoate]
IC50 [1]: 0.15 µM
% INHIBITION (plasma TXB2) [2]: -92.3%

CCOC(=O)c1ccc(/C=C(\COCc2ccc(F)cc2)Cn2ccnc2)cc1 [13 (Z-isomer), ethyl 4-[2-[[(4-fluorophenyl)methoxy]-methyl]-3-(1H-imidazol-1-yl)-1Z-propenyl]benzoate]
IC50 [1]: 0.45 µM
% INHIBITION (plasma TXB2) [2]: -49.1%

COc1ccc(COC/C(=C\c2ccc(C(=O)O)cc2)Cn2ccnc2)cc1 [Example 3, 4-[3-(1H-Imidazol-1-yl)-2-[[(4-methoxyphenyl)methoxy]methyl]-1Z-propenyl]benzoic acid]
IC50 [1]: 0.56 µM

COc1ccc(C=C(COCc2ccc(OC)cc2)Cn2ccnc2)cc1 [Example 7, 1-[3-(4-Methoxyphenyl)-2-[[(4-methoxyphenyl)methoxy]methyl]-2-propenyl]-1H-imidazole]
IC50 [1]: 17.3 µM

CCOC(=O)CCCCCC=C(COCc1ccc(OC)cc1)Cn1ccnc1 [Example 4, ethyl 9-(1H-imidazol-1-yl)-8-[[(4-methoxyphenyl)methoxy]methyl]-7-nonenoate]
IC50 [1]: 9.3 µM

COc1ccc(COCC(=CCCCCC(=O)O)Cn2ccnc2)cc1 [Example 6, 8-(1H-Imidazol-1-yl)-7-[[(4-methoxyphenyl)methoxy]methyl]-6-octenoic acid]
IC50 [1]: 1.4 µM

CCOC(=O)CCCCCC=C(CCCc1ccc(OC)cc1)Cn1ccnc1 [Example 8, Ethyl 8-[(1H-imidazol-1-yl)methyl]-11-(4-methoxyphenyl)-7-undecenoate]
IC50 [1]: 1.8 µM

CCOC(=O)c1cccc(/C=C(\COCc2ccc(OC)cc2)Cn2ccnc2)c1 [9 (Z-isomer), ethyl 3-[3-(1H-imidazol-1-yl)-2-[[(4-methoxyphenyl)methoxy]methyl]-1Z-propenyl]benzoate]
IC50 [1]: 11.5 µM

COc1ccc(COCC(=CCCCCCC(=O)O)Cn2ccnc2)cc1 [Example 5, 9-(1H-Imidazol-1-yl)-8-[[(4-methoxyphenyl)methoxy]methyl]-7-nonenoic acid]
IC50 [1]: 4.6 µM
% INHIBITION (plasma TXB2) [2]: -4.0%

CCOC(=O)c1ccc(/C=C(/COCc2ccc(OC)cc2)Cn2ccnc2)cc1OC [11 (E-isomer)]
IC50 [1]: 21.8 µM
% INHIBITION (plasma TXB2) [2]: -36.0%

COc1ccc(COC/C(=C/c2ccc(C(=O)O)cc2)Cn2ccnc2)cc1 [Example 2, 4-[3-(1H-imidazol-1-yl)-2-[[(4-methoxyphenyl)methoxy]methyl]-1E-propenyl]benzoic acid]
IC50 [1]: 18.2 µM

CCOC(=O)c1ccc(/C=C(/COCc2ccc(OC)cc2)Cn2ccnc2)cc1Cl [10 (E-isomer)]
IC50 [1]: 4.78 µM
% INHIBITION (plasma TXB2) [2]: -18.6%

CCOC(=O)c1cccc(/C=C(/COCc2ccc(OC)cc2)Cn2ccnc2)c1 [9 (E-isomer), ethyl 3-[3-(1H-imidazol-1-yl)-2-[[(4-methoxyphenyl)methoxy)methyl]-1E-propenyl]-benzoate]
IC50 [1]: 403 µM

CCOC(=O)c1ccc(/C=C(/COCc2ccc(OC)cc2)Cn2ccnc2)cc1 [1 (E-isomer), ethyl 4-[3-(1H-imidazol-1-yl)-2-[[(4-methoxyphenyl)methoxy]methyl]-1E-propenyl]benzoate]
IC50 [1]: 0.89 µM
